Experimental data as given in ChEMBL document CHEMBL1130655, “Nonpeptide oxytocin antagonists: potent, orally bioavailable analogs of L-371,257 containing a 1-R-(pyridyl)ethyl ether terminus” (Bioorg Med Chem Lett, 1998).

What was measured:
Oxytocin receptor [1] = target: T1, Oxytocin receptor (Homo sapiens, UniProt P30559); experiment: Binding affinity against cloned human oxytocin receptor from human embryonic kidney cells; assay type: cell-based
T1 sequence (P30559 whole entry): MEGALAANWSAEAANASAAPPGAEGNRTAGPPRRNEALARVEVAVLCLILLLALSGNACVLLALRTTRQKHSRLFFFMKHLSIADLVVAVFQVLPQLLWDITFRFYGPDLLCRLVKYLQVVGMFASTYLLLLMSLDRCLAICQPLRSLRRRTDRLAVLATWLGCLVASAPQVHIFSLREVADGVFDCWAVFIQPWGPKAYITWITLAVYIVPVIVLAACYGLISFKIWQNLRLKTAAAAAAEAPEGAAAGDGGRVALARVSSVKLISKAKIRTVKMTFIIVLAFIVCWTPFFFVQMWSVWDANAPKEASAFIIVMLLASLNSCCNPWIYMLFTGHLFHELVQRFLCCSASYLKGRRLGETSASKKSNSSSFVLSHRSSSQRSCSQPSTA

[2] = Half life period after 3 mg/kg iv administration in rat; assay type: ADME, organism-based; parameters: dose 3 mg/kg, route intravenous; details: in vivo
Rattus norvegicus [3] = species: Rattus norvegicus; experiment: Compound was evaluated for its ability to antagonize rat OT-induced uterine contractile response in the vehicle treated group by 50%; assay type: functional
Oxytocin receptor [4] = target: T2, Oxytocin receptor (Rattus norvegicus, UniProt P70536); experiment: Binding affinity against oxytocin receptor (rOTr) in DES pretreated rat uterine
T2 sequence (P70536 whole entry): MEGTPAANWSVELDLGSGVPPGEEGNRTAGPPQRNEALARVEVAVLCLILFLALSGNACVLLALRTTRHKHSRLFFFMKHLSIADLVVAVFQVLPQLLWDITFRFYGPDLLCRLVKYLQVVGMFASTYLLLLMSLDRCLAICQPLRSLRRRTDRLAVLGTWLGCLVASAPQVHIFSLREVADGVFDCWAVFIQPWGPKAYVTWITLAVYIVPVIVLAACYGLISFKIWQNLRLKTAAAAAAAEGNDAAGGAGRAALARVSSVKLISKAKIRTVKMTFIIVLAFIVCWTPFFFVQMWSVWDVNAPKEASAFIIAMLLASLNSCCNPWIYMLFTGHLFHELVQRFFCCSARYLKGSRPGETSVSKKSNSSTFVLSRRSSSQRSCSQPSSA

[5] = Half life period after 3 mg/kg iv administration in the rat; assay type: ADME, organism-based; parameters: dose 3 mg/kg, route intravenous; details: in vivo
Rattus norvegicus [6] = experiment: Maximum plasma concentration after 20 mg/kg oral administration in rat; assay type: ADME, organism-based; parameters: dose 20 mg/kg, route oral; details: in vivo
[7] = Oral bioavailability in rat; assay type: ADME, organism-based; details: in vivo

SMILES | Ki (Oxytocin receptor [1]) [nM] | AD50 (Rattus norvegicus [3]) [mg/kg] | also measured
CCC(Oc1ccc(C(=O)N2CCC(N3C(=O)OCc4ccccc43)CC2)c(OC)c1)c1ccccc1 (stereo not given) | 58 | – | –
COc1cc(OC(C)c2ccccc2)ccc1C(=O)N1CCC(N2C(=O)OCc3ccccc32)CC1 (stereo not given) | – | – | half-life [2]: < 30 min
CCOc1ccc(C(=O)N2CCC(N3C(=O)OCc4ccccc43)CC2)c(OC)c1 | 15 | – | –
COc1cc(OC(C)C)ccc1C(=O)N1CCC(N2C(=O)OCc3ccccc32)CC1 | 17 | – | –
COc1cc(OC(C)c2cccnc2)ccc1C(=O)N1CCC(N2C(=O)OCc3ccccc32)CC1 (stereo not given) | – | 1.2 | –
COc1cc(O[C@H](C)c2cc[n+]([O-])cc2)c(F)cc1C(=O)N1CCC(N2C(=O)OCc3ccccc32)CC1 | 7.34 | 0.78 | Ki (Oxytocin receptor [4]): 9.9 nM
COc1cc(OC2CCN(C(C)=O)CC2)ccc1C(=O)N1CCC(N2C(=O)OCc3ccccc32)CC1 | 9.3 | 0.55 | half-life [5]: ~30 min; Cmax (Rattus norvegicus [6]): 3.3 uM equiv; bioavailability [7]: 39%
COc1ccc(C(=O)N2CCC(N3C(=O)OCc4ccccc43)CC2)c(OC)c1 | 87 | – | Ki (Oxytocin receptor [4]): 120 nM
